One series addresses T1, 5-LOX (Homo sapiens, UniProt P09917).
T1 construct: purchased MyBioSource
T1 sequence (P09917 1-674): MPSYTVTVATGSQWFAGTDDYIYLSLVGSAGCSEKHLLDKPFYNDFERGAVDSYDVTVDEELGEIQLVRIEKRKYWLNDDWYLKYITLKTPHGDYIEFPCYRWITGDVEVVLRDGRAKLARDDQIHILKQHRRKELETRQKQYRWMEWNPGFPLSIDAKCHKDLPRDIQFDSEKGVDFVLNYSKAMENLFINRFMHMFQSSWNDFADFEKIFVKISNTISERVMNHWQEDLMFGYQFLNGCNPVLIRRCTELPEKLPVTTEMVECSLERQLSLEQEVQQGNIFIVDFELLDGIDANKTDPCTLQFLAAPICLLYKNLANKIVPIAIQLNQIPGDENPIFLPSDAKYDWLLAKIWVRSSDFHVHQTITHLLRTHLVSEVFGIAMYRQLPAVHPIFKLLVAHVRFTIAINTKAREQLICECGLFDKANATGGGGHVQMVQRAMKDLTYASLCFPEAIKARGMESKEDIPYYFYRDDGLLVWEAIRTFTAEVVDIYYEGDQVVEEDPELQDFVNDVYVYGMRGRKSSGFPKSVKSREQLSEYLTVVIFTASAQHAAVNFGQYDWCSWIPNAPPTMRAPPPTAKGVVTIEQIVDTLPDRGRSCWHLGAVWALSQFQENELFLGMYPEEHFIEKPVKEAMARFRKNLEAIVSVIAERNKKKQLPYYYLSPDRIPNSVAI
Briefly: Fluorometric 5-LOX inhibitor screening kit. The series is classed as biochemical. The note with it: for 5-LOX Percent of İnhibition: at 10 µM. The procedure: COX-1 and COX-2 inhibitory activities were tested using fluorometric COX-1 and COX-2 inhibitor screening kits (Abcam, United Kingdom), and the 5-LOX inhibitory activity was tested using a fluorometric 5-LOX inhibitor screening kit (MyBioSource, USA). These assays are based on the fluorometric detection of Prostaglandin G2 (a product generated by the COX enzyme) or on the fluorometric detection of the intermediate generated by the 5-LOX enzyme. The experiments were conducted in accordance with the manufacturers’ instructions.
For the determination of 5-LOX inhibitory activity, tested compounds were dissolved in DMSO (5 mM stock solution) and then diluted with the same solvent to obtain the test solutions. Test solutions were added to wells in an amount of 2 µL in the final 100 µL reaction volume. […] EC, SC, IC, and all test solutions were analyzed in triplicate.

The next series concerns the target T2, COX-1 (Ovis aries, UniProt P05979).
T2 sequence (P05979 25-600): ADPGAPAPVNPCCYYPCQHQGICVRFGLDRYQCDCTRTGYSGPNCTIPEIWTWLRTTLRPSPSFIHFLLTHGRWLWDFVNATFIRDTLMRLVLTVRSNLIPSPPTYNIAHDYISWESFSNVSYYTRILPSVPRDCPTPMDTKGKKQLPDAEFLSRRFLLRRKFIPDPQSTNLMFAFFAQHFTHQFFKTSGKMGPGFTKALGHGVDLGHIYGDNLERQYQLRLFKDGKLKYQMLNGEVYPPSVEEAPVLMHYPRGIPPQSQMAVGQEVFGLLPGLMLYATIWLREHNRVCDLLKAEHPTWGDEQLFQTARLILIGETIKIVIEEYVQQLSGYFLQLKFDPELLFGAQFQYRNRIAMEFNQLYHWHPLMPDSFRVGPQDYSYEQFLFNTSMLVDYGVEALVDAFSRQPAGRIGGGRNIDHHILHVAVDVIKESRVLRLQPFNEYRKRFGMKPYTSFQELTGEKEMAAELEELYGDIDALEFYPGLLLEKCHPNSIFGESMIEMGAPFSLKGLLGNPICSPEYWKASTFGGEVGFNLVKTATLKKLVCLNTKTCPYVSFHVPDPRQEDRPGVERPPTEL
Put plainly: Fluorometric COX-1 inhibitor screening kit.

The values that follow come from publication PMC10223062, “Discovery of Novel Thiophene/Hydrazones: In Vitro and In Silico Studies against Pancreatic Cancer” (Pharmaceutics, 2023).

The term melting point denotes the temperature of the solid-liquid transition. Broadly, the IC50 is the point on the concentration scale where inhibition reaches its midpoint.

Some results are limits rather than exact numbers.

Experimental for COX-1: For the determination of COX-1 and COX-2 inhibitory activity, the tested compounds were dissolved in dimethyl sulfoxide (DMSO, 5 mM stock solution) and then diluted with the same solvent to obtain the test solutions. The test solutions were further diluted 5× with COX Assay Buffer (2 µL of test solution: 8 µL COX Assay Buffer). […] Solvent Control (SC) was prepared by adding 2 µL DMSO and 8 µL COX Assay Buffer, while Sample (S) and Enzyme Control (EC) were prepared by adding 10 µL of diluted test solution and COX Assay Buffer, respectively, into assigned wells.

For the compound `O=C(N/N=C/c1ccccc1O)c1cc(-c2ccccc2)c(-c2ccccc2)s1` [7a, N’-[(E)-(2-hydroxyphenyl)methylidene]-4,5-diphenylthiophene-2-carbohydrazide], the melting point is 238 °C. At 5-LOX, the IC50 is 3.78 ± 0.39 µM and the “5-LOX Percent of İnhibition” value came out at 64.38 ± 0.46%.
The compound `O=C(N/N=C/c1ccc(O)cc1)c1cc(-c2ccccc2)c(-c2ccccc2)s1` [7c, N’-[(E)-(4-hydroxyphenyl)methylidene]-4,5-diphenylthiophene-2-carbohydrazide] showed a melting point of 256 °C. Further, on COX-1, the IC50 is greater than 100 µM. Besides, at 5-LOX, the IC50 was determined as 2.6 ± 0.11 µM and the “5-LOX Percent of İnhibition” value came to 55.05 ± 1.37%.
The compound `COc1ccccc1/C=N/NC(=O)c1cc(-c2ccccc2)c(-c2ccccc2)s1` [7d, N’-[(E)-(2-methoxyphenyl)methylidene]-4,5-diphenylthiophene-2-carbohydrazide] returned a melting point of 263 °C. The “5-LOX Percent of İnhibition” value on 5-LOX is 15.61 ± 0.66%.
As for `COc1cc(/C=N/NC(=O)c2cc(-c3ccccc3)c(-c3ccccc3)s2)ccc1O` [7e, N’-[(E)-(3-methoxy-4-hydroxyphenyl)methylidene]-4,5-diphenylthiophene-2-carbohydrazide], the melting point amounted to 234 °C. The compound also returned an IC50 against COX-1 greater than 100 µM. Also, on 5-LOX, it took 3.3 ± 0.07 µM to reach half-maximal inhibition (IC50) and the “5-LOX Percent of İnhibition” value is recorded as 60.69 ± 0.54%.
In turn, `COc1ccc(/C=N/NC(=O)c2cc(-c3ccccc3)c(-c3ccccc3)s2)cc1O` [7f, N’-[(E)-(3-hydroxy-4-methoxyphenyl)methylidene]-4,5-diphenylthiophene-2-carbohydrazide] registered a melting point of 249 °C. On COX-1, the half-maximal inhibitory concentration (IC50) is greater than 100 µM. Further, on 5-LOX, it took 2.94 ± 0.2 µM to reach half-maximal inhibition (IC50) and the “5-LOX Percent of İnhibition” value is reported as 60.56 ± 2.49%.
